Experimental data reported in ChEMBL document CHEMBL5034035, “Discovery of an Oxycyclohexyl Acid Lysophosphatidic Acid Receptor 1 (LPA1) Antagonist BMS-986278 for the Treatment of Pulmonary Fibrotic Diseases” (J Med Chem, 2021).
≈ marks a conversion by molar mass, not a printed value. Each block holds one molecule with its values, some of them ahead of it.

How the values were obtained:
[1] = Elimination half life in CD-1 mouse at 3 mg/kg, po or 1 mg/kg, iv measured up to 24 hrs by LC-MS/MS analysis; format: ADME, organism-based; details: in vivo, read-out: beta t1/2 (converted)
[2] = Drug metabolism in mouse hepatocytes assessed as carbamate hydrolytic product formation at 10 uM measured after 2 hrs by LC/UV/MS analysis; format: ADME, cell-based, Hepatocyte
[3] = Oral bioavailability in CD-1 mouse at 3 mg/kg measured up to 24 hrs by LC-MS/MS analysis; format: ADME, organism-based; details: in vivo
[4] = animal or person; details: Mus musculus, CD-1
[5] = tested on: Rattus norvegicus; assay: (§1) Anti-fibrotic activity in Sprague-Dawley rat model of bleomycin-induced lung fibrosis assessed as decrease in bleomycin-induced collagen deposition at 30 mg/kg, po BID followed by tracheal administration of bleomycin on day 8 and measured on day 21 by Masson's trichrome staining based HALO densitometric analysis relative to control; format: functional; set-up: scale not given: the % may be the effect or the level left
[6] = Oral bioavailability in Sprague-Dawley rat at 3 mg/kg measured up to 24 hrs by LC-MS/MS analysis; format: ADME, organism-based; details: in vivo
[7] = AUC (0 to 24 hrs) in Cynomolgus monkey plasma at 150 mg/kg/day; format: ADME, organism-based, Macaca fascicularis; set-up: time < 24 hr, dose 150 mg/kg/day
[8] = Hepatobiliary toxicity in Sprague-Dawley rat assessed as bile duct hyperplasia at up to 100 mg/kg/day measured up to 6 months; format: organism-based; details: in vivo
[9] = tested on: Rattus norvegicus; assay: as §1, with “3” for “30”; format: functional; set-up: scale not given: the % may be the effect or the level left; details: time 21 day
[10] = Drug metabolism in human hepatocytes assessed as N-demethylation metabolite formation at 10 uM measured after 2 hrs by LC/UV/MS analysis; format: ADME, cell-based, Hepatocyte
[11] = Volume of distribution at steady state in cynomolgus monkey at 3 mg/kg, po or 1 mg/kg, iv measured up to 24 hrs by LC-MS/MS analysis; format: ADME, organism-based, Macaca fascicularis; details: in vivo, read-out: Vdss
[12] = Oral bioavailability in cynomolgus monkey at 3 mg/kg measured up to 24 hrs by LC-MS/MS analysis; format: ADME, organism-based, Macaca fascicularis; details: in vivo
[13] = Drug metabolism in dog hepatocytes assessed as carbamate hydrolytic product formation at 10 uM measured after 2 hrs by LC/UV/MS analysis; format: ADME, cell-based, Canis lupus familiaris, Hepatocyte
[14] = Plasma clearance in CD-1 mouse at 3 mg/kg, po or 1 mg/kg, iv measured up to 24 hrs by LC-MS/MS analysis; format: ADME, organism-based
[15] = AUC (0 to 24 hrs) in Sprague-Dawley rat plasma at 300 mg/kg/day; format: ADME, organism-based; set-up: time < 24 hr, dose 300 mg/kg/day
[16] = Hepatobiliary toxicity in Sprague-Dawley rat assessed as cholestasis at up to 100 mg/kg/day measured up to 6 month; format: organism-based; details: in vivo, time <=6 months
[17] = Protein binding in Cynomolgus monkey plasma assessed as free fraction at 3 mg/kg, po or 1 mg/kg, iv measured up to 24 hrs by LC-MS/MS analysis; format: ADME, organism-based, Macaca fascicularis
[18] = target: Lysophosphatidic acid receptor 1 (Mus musculus) (UniProt P61793); assay: Antagonist activity at mouse LPA1 receptor expressed in CHO cells assessed as inhibition of LPA stimulated calcium flux incubated for 20 mins followed by LPA stimulation and measured for 90 seconds; format: functional, cell-based; details: filed as antagonist
[19] = animal or person; details: Mus musculus, CD-1; remark: listed apart in the source
[20] = Drug metabolism in human hepatocytes assessed as carbamate hydrolytic product formation at 10 uM measured after 2 hrs by LC/UV/MS analysis; format: ADME, cell-based, Hepatocyte
[21] = target: T1, hERG (Homo sapiens, UniProt Q12809); assay: Inhibition of hERG at 30 uM by electrophysiological assay relative to control
[22] = Hepatobiliary toxicity in Cynomolgus monkey assessed as cholangitis at up to 150 mg/kg/day measured up to 9 months; format: organism-based, Macaca fascicularis; details: in vivo
[23] = Hepatobiliary toxicity in Sprague-Dawley rat assessed as cholangitis at up to 100 mg/kg/day measured up to 6 months; format: organism-based; details: in vivo
[24] = Plasma clearance in Cynomolgus monkey at 3 mg/kg, po or 1 mg/kg, iv measured up to 24 hrs by LC-MS/MS analysis; format: ADME, organism-based, Macaca fascicularis
[25] = Drug metabolism in rat hepatocytes assessed as N-demethylation metabolite formation at 10 uM measured after 2 hrs by LC/UV/MS analysis; format: ADME, cell-based, Hepatocyte
[26] = Plasma clearance in Sprague-Dawley rat at 3 mg/kg, po or 1 mg/kg, iv measured up to 24 hrs by LC-MS/MS analysis; format: ADME, organism-based
[27] = Hepatobiliary toxicity in Cynomolgus monkey assessed as cholestasis at up to 150 mg/kg/day measured up to 9 month; format: organism-based, Macaca fascicularis; details: in vivo, time <=9 months
[28] = Hepatobiliary toxicity in Cynomolgus monkey assessed as bile duct hyperplasia at up to 150 mg/kg/day measured up to 9 months; format: organism-based, Macaca fascicularis; details: in vivo
[29] = Aqueous solubility of compound at pH 7.5; format: physicochemical
[30] = Drug metabolism in monkey hepatocytes assessed as N-demethylation metabolite formation at 10 uM measured after 2 hrs by LC/UV/MS analysis; format: ADME, cell-based, Macaca mulatta, Hepatocyte; details: rhesus monkey
[31] = target: Phosphatidylcholine translocator ABCB4 (Homo sapiens, UniProt P21439); assay: Inhibition of MDR3 (unknown origin); format: ADME
[32] = Drug metabolism in monkey hepatocytes assessed as carbamate hydrolytic product formation at 10 uM measured after 2 hrs by LC/UV/MS analysis; format: ADME, cell-based, Macaca mulatta, Hepatocyte; details: rhesus monkey
[33] = tested on: Rattus norvegicus; assay: as §1, with “10” for “30”; format: functional; set-up: scale not given: the % may be the effect or the level left; details: time 21 day
[34] = Hepatobiliary toxicity in Cynomolgus monkey assessed as bile duct hyperplasia measured up to 1 month; set-up: species or system Macaca fascicularis; details: in vivo, time <=1 months
[35] = Hepatobiliary toxicity in Cynomolgus monkey assessed as cholestasis measured up to 1 month; set-up: species or system Macaca fascicularis; details: time <=1 months
[36] = Hepatobiliary toxicity in Cynomolgus monkey assessed as cholangitis measured up to 1 month; set-up: species or system Macaca fascicularis; details: in vivo, time <=1 months
[37] = Drug metabolism in human hepatocytes assessed as formation of acyl glucuronide metabolites at 10 uM measured after 2 hrs by LC/UV/MS analysis; format: ADME, cell-based, Hepatocyte
[38] = AUC (0 to 24 hrs) in Cynomolgus monkey plasma at 500 mg/kg, po administered for 4 weeks; format: ADME, organism-based, Macaca fascicularis; set-up: route oral, time 4 weeks, dose 500 mg/kg
[39] = Metabolic stability in liver microsomes (unknown origin) assessed as half life; format: ADME, Microsome
[40] = target: T1, hERG; assay: Inhibition of hERG at 10 uM by electrophysiological assay relative to control
[41] = target: CYP2B6 (Homo sapiens, UniProt P20813); assay: Induction of CYP2B6 in human hepatocytes; format: ADME, cell-based, Hepatocyte
[42] = tested on: Rattus norvegicus; assay: Anti-fibrotic activity in Sprague-Dawley rat model of bleomycin-induced lung fibrosis assessed as decrease in bleomycin-induced collagen deposition by measuring decrease in PSR-stained lung sections at 30 mg/kg, po BID for 21 days followed by tracheal administration of bleomycin by PSR staining based HALO densitometric analysis relative to control; format: functional; set-up: scale not given: the % may be the effect or the level left; details: time 21 day
[43] = AUC (0 to 24 hrs) in Cynomolgus monkey plasma at 50 mg/kg, po administered for 7 days; format: ADME, organism-based, Macaca fascicularis; set-up: route oral, time 7 day, dose 50 mg/kg
[44] = target: hERG (KCNH2) (Homo sapiens, UniProt Q12809); assay: Inhibition of hERG at 15 uM by electrophysiological assay relative to control
Sequence of hERG (KCNH2) (Q12809 whole entry): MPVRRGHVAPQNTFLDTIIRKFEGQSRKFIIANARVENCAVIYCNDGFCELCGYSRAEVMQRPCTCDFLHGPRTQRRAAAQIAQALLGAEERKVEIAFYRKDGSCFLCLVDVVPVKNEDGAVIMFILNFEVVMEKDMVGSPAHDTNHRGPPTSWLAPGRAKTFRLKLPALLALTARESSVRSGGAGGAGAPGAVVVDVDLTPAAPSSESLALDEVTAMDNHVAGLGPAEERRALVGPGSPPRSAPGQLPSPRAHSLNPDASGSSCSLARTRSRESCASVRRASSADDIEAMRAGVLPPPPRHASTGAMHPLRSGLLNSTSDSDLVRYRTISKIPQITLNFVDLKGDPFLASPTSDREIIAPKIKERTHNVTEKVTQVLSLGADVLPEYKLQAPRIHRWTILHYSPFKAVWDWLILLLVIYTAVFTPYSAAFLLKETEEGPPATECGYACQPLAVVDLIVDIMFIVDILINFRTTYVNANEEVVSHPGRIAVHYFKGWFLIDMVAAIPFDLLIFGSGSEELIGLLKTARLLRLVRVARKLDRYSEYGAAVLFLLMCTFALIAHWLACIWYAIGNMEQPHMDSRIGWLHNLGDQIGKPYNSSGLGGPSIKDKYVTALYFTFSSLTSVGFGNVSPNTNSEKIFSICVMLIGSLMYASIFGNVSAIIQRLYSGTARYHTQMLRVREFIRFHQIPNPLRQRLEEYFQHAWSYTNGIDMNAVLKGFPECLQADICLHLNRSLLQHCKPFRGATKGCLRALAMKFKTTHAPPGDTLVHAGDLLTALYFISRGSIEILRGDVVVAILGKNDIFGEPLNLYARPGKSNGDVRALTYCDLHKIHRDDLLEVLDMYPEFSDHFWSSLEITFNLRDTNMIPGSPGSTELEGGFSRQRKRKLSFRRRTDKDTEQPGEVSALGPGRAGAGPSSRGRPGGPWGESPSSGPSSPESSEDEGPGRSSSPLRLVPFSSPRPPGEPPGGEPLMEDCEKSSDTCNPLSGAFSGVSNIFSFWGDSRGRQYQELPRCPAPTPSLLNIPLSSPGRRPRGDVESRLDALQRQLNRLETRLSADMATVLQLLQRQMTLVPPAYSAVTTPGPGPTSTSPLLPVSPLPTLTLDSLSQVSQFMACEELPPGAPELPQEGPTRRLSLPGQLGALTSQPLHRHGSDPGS

Sequence of CYP2B6 (P20813 whole entry): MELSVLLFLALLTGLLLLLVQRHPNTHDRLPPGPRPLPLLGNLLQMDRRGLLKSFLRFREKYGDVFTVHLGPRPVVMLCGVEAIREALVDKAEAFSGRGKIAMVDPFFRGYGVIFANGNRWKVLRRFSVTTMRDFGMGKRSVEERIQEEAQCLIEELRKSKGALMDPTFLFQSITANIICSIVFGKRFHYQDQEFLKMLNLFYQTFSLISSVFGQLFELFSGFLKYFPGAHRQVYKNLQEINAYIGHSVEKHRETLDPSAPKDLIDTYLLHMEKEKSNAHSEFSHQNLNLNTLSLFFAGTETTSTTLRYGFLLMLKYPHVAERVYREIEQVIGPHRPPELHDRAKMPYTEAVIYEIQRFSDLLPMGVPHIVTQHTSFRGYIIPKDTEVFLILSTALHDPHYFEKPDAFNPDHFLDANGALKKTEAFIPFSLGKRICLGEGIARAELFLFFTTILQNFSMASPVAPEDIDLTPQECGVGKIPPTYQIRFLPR
Sequence of Phosphatidylcholine translocator ABCB4 (P21439 whole entry): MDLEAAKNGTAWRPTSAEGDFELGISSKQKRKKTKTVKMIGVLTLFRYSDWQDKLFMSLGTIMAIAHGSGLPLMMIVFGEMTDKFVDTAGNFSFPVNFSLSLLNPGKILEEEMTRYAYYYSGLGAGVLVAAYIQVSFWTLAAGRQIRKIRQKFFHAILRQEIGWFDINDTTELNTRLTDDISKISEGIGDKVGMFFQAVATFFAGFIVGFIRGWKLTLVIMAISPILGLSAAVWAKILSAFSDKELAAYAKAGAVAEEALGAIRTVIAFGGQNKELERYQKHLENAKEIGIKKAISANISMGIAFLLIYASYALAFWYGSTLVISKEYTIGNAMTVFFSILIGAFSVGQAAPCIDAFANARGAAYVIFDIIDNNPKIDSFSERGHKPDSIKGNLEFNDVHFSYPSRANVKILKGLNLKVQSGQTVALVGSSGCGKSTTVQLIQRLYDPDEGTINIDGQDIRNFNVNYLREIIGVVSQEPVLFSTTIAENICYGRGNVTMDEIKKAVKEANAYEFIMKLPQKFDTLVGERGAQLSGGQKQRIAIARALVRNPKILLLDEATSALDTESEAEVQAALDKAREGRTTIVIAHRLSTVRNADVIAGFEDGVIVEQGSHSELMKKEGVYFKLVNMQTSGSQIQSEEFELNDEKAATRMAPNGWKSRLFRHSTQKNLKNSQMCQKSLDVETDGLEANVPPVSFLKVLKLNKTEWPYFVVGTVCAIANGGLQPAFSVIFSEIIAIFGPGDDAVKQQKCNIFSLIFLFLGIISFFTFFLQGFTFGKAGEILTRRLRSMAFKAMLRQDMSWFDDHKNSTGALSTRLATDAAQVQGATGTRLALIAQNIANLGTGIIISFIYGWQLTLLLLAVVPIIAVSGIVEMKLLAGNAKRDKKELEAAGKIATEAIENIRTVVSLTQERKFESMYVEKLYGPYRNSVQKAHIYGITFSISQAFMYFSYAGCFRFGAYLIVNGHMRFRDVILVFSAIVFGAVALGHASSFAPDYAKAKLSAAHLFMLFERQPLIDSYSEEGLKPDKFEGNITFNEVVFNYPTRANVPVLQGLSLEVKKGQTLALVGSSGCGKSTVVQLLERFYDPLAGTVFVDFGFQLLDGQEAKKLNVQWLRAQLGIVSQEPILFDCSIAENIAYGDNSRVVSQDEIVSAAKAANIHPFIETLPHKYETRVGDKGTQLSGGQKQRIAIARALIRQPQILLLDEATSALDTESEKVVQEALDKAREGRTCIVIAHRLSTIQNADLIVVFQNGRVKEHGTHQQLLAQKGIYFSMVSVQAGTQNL
Sequence of Lysophosphatidic acid receptor 1 (Mus musculus) (P61793 whole entry): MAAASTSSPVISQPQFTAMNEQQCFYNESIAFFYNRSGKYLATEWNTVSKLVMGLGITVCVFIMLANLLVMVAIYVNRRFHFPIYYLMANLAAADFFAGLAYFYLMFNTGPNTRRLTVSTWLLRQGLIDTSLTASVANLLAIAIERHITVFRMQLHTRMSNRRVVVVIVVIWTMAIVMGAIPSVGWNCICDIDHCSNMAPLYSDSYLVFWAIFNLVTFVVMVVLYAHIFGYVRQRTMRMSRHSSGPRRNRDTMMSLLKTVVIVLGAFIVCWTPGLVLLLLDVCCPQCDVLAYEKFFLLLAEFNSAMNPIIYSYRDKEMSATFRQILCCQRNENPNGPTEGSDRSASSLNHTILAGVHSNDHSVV
T1 sequence (Q12809 whole entry): as the sequence (Q12809 whole entry) above

half-life [1]: 2.5 h
Drug metabolism [2]: Metabolite_Detected
bioavailability [3]: 70%
IC50 [4]: 174 µM
bioavailability [6]: 100%
AUC at 24 h [7]: 1140 µg·h/mL
Drug metabolism [10]: Metabolite_Detected
Vd [11]: 1.6 L/kg
bioavailability [12]: 79%
Drug metabolism [13]: Metabolite_Detected
clearance [14]: 37 mL/min/kg
AUC at 24 h [15]: 1140 µg·h/mL
fraction unbound at 24 h [17]: 0.008
Kb [18]: 0.004 µM
IC50 [19]: 48 µM
Drug metabolism [20]: Metabolite_Detected
clearance [24]: 2 mL/min/kg
Drug metabolism [25]: Metabolite_Detected
clearance [26]: 15 mL/min/kg
solubility [29]: 6210 µg/mL (≈ 13.9 mM)
Drug metabolism [30]: Metabolite_Detected
IC50 [31]: > 100 µM
Drug metabolism [32]: Metabolite_Detected
SMILES: CCCN(C)C(=O)OCc1c(-c2ccc(O[C@H]3CCC[C@H](C(=O)O)C3)c(C)n2)nnn1C [ADMILPARANT]
Activity [5]: 41%
Activity [8]: Non-Toxic
Activity [9]: 48%
Activity [16]: Non-Toxic
inhibition at 30 µM [21]: 35%
Activity [22]: Non-Toxic
Activity [23]: Non-Toxic
Activity [27]: Non-Toxic
Activity [28]: Non-Toxic
Activity [33]: 56%

half-life [1]: 1.5 h
bioavailability [3]: 91%
bioavailability [6]: 69%
Vd [11]: 6.3 L/kg
bioavailability [12]: 65%
clearance [14]: 118 mL/min/kg
fraction unbound at 24 h [17]: 0.009
Drug metabolism [20]: Metabolite_Notdetected
Drug metabolism [37]: Metabolite_Detected
AUC at 672 h [38]: 962 µg·h/mL
clearance [24]: 17 mL/min/kg
half-life [39]: > 0.917 h
clearance [26]: 104 mL/min/kg
IC50 [41]: > 50 µM
SMILES: Cc1nc(-c2nnn(C)c2COC(=O)N(C)CC2CCC2)ccc1O[C@H]1CCC[C@H](C(=O)O)C1
Activity [34]: Non-Toxic
Activity [35]: Non-Toxic
Activity [36]: Non-Toxic
inhibition at 10 µM [40]: 6%

SMILES: Cc1noc(-c2ccc(-c3ccc(C4(C(=O)O)CC4)cc3)cc2)c1NC(=O)O[C@H](C)c1ccccc1 [BMS-986020]
Activity [42]: 63%
Kb [18]: 0.0037 µM
AUC at 168 h [43]: 74 µg·h/mL
inhibition at 15 µM [44]: 7%
IC50 [41]: > 50 µM
IC50 [31]: 7.5 µM
